Among the data in PubChem BioAssay AID1745844 (Carcinogenic Potency Database (CPDB), 2022) are carcinogen call and TD50 values, retold here.

Calls of active or inactive are those of the source. The rule behind the calls is not given here.

This data set concerns rodent lifetime carcinogenesis bioassay, tumor incidence TD50. In words: chronic cancer bioassays in animals – CPDB, compiled studies (AID 1745844).
[1] abbreviates: mouse, strain B6C3F1, females, in feed, site: any site (literature study), lesion: several types, types named in the paper, dosed 103 weeks, study length 104 weeks.

As to `O=S(=O)(O)c1ccc(N=Nc2cc(S(=O)(=O)O)c3ccccc3c2O)c2ccccc12`, the carcinogen call reads like this: (mouse, strain ASH-CS1, females, in feed, site: liver, lesion: one or several types, types not named, dosed 80 weeks, study length 80 weeks) “negative (inactive)”; (mouse, strain ASH-CS1, males, in feed, site: liver, lesion: adenoma, dosed 80 weeks, study length 80 weeks) “negative (inactive)”; (mouse, strain ASH-CS1, males, in feed, site: liver, lesion: nodular hyperplasia, dosed 80 weeks, study length 80 weeks) “negative (inactive)”; under setting [1], “negative (inactive)”; (mouse, strain B6C3F1, males, in feed, site: any site (literature study), lesion: several types, types named in the paper, dosed 103 weeks, study length 103 weeks) “negative (inactive)”. The TD50 is, setting by setting: (mouse, strain ASH-CS1, females, in feed, site: lung, lesion: papillary adenoma, dosed 80 weeks, study length 80 weeks) 32900 mg/kg/day (inactive); (mouse, strain ASH-CS1, males, in feed, site: lung, lesion: papillary adenoma, dosed 80 weeks, study length 80 weeks) 12300 mg/kg/day (inactive); (rat, strain Fischer 344, females, in feed, site: any site (literature study), lesion: several types, types named in the paper, dosed 103 weeks, study length 104 weeks) 7180 mg/kg/day; (rat, strain Fischer 344, females, in feed, site: clitoral gland, lesion: sebaceous adenoma, dosed 103 weeks, study length 104 weeks) 16400 mg/kg/day; (rat, strain Fischer 344, females, in feed, site: uterus, lesion: endometrial stromal polyp, dosed 103 weeks, study length 104 weeks) 3270 mg/kg/day (inactive); (rat, strain Fischer 344, males, in feed, site: any site (literature study), lesion: several types, types named in the paper, dosed 103 weeks, study length 104 weeks) 1860 mg/kg/day (inactive). Besides, where the note is “rat, strain Fischer 344, males, in feed, site: liver, lesion: hepatocellular adenoma + hepatocellular carcinoma + neoplastic nodule, dosed 103 weeks, study length 104 weeks”, the TD50 stood at 9850 mg/kg/day.

`NC(=O)N(CCCO)N=O`: the TD50 is 1.27 mg/kg/day (rat, strain Fischer 344, females, by gavage, site: forestomach, lesion: one or several types, types not named, dosed 30 weeks, study length 104 weeks); 1.27 mg/kg/day (rat, strain Fischer 344, females, by gavage, site: liver, lesion: one or several types, types not named, dosed 30 weeks, study length 104 weeks); 1.98 mg/kg/day (rat, strain Fischer 344, males, by gavage, site: forestomach, lesion: one or several types, types not named, dosed 30 weeks, study length 104 weeks); 0.866 mg/kg/day (rat, strain Fischer 344, males, by gavage, site: forestomach, lesion: one or several types, types not named, dosed 40 weeks, study length 104 weeks); 3.78 mg/kg/day (rat, strain Fischer 344, males, by gavage, site: liver, lesion: one or several types, types not named, dosed 30 weeks, study length 104 weeks); 1.24 mg/kg/day (rat, strain Fischer 344, males, by gavage, site: liver, lesion: one or several types, types not named, dosed 40 weeks, study length 104 weeks). Further, the TD50 reads like this: (rat, strain Fischer 344, males, by gavage, site: lung, lesion: several types, types named in the paper, dosed 30 weeks, study length 104 weeks) 1.79 mg/kg/day; (rat, strain Fischer 344, males, by gavage, site: skin, lesion: several types, types named in the paper, dosed 30 weeks, study length 104 weeks) 0.668 mg/kg/day; (rat, strain Fischer 344, males, by gavage, site: stomach, glandular, lesion: one or several types, types not named, dosed 30 weeks, study length 104 weeks) 0.888 mg/kg/day.

As for `CC1CCC(C(C)C)C(O)C1` (centres undefined), the carcinogen call is “negative (inactive)” under setting [1] and “negative (inactive)” (rat, strain Fischer 344, females, in feed, site: any site (literature study), lesion: several types, types named in the paper, dosed 103 weeks, study length 105 weeks). In addition, the TD50 was 5190 mg/kg/day (mouse, strain B6C3F1, females, in feed, site: liver, lesion: hepatocellular adenoma + hepatocellular carcinoma + neoplastic nodule, dosed 103 weeks, study length 104 weeks); 3170 mg/kg/day (mouse, strain B6C3F1, females, in feed, site: lung, lesion: alveolar/bronchiolar adenoma + alveolar/bronchiolar carcinoma, dosed 103 weeks, study length 104 weeks); 2750 mg/kg/day (inactive) (mouse, strain B6C3F1, males, in feed, site: any site (literature study), lesion: several types, types named in the paper, dosed 103 weeks, study length 104 weeks); 1960 mg/kg/day (mouse, strain B6C3F1, males, in feed, site: liver, lesion: hepatocellular adenoma + hepatocellular carcinoma + neoplastic nodule, dosed 103 weeks, study length 104 weeks); 1410 mg/kg/day (inactive) (rat, strain Fischer 344, males, in feed, site: any site (literature study), lesion: several types, types named in the paper, dosed 103 weeks, study length 105 weeks); 5690 mg/kg/day (rat, strain Fischer 344, males, in feed, site: liver, lesion: hepatocellular adenoma + hepatocellular carcinoma + neoplastic nodule, dosed 103 weeks, study length 105 weeks).

One may read the TD50 as the 50% point of the dose-response relation for the toxic effect studied.
